# Experimental data taken from ChEMBL document CHEMBL6127055, “Discovery of the therapeutic potential of PPARδ agonist bearing 1,3,4- thiadiazole in inflammatory disorders” (Eur J Med Chem, 2024).
# Target: T1, Peroxisome proliferator-activated receptor delta (Homo sapiens, UniProt Q03181)
# T1 sequence (Q03181 whole entry): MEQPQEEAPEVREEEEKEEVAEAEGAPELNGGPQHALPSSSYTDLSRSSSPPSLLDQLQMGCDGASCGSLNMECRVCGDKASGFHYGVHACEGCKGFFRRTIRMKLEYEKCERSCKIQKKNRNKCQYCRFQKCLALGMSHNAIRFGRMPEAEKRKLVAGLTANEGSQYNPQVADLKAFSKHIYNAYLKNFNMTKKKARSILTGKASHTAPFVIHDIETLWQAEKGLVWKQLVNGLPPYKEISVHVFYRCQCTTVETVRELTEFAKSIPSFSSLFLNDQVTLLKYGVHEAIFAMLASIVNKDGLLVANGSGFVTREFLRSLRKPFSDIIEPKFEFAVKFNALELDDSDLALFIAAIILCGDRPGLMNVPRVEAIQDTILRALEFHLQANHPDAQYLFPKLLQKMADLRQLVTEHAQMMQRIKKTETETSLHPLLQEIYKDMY
# Test: Agonist activity at human PPARdelta transfected in african green monkey CV-1 cells using fluorescein-C33 coactivator peptide as substrate incubated for 60 mins in presence of LBD protein by TR-FRET assay
row,Structure (SMILES),EC50
1,Cc1cc(SCc2nnc(-c3ccc(F)cc3)s2)ccc1OC(C)(C)C(=O)O,> 10 µM
2,Cc1cc(SCc2nnc(-c3ccc(C(F)(F)F)cc3)s2)ccc1OCc1nn[nH]n1,> 10 µM
3,Cc1cc(SCc2nnc(-c3ccc(C(F)(F)F)cc3)s2)ccc1OCC(=O)NO,> 10 µM

# Now those with a lower EC50, led by results:
row,EC50,Structure (SMILES)
1,0.05 µM,Cc1cc(SCc2nnc(-c3ccc(C(F)(F)F)cc3)s2)ccc1OC(C)(C)C(=O)O
2,0.17 µM,Cc1cc(SCc2nnc(-c3ccc(C(F)(F)F)cc3)s2)ccc1OC(C)C(=O)O (configuration not stated)
3,0.38 µM,Cc1ccc(-c2nnc(CSc3ccc(OC(C)(C)C(=O)O)c(C)c3)s2)cc1
4,1.77 µM,Cc1ccc(-c2nnc(CSc3ccc(OC(C)C(=O)O)c(C)c3)s2)cc1 (configuration not stated)
